System: Duramyl 60T (α-amylase)
Assay: Activation of Duramyl 60T by types of oxidizing agents (phadebas method)
Format: biochemical
Settings: activity of Duramyl 60T (a1) after contact with oxidizing agent powder (b2), ratio 10/1; 25° C., 8 g/m^3, 30 minutes
Method: One tablet from Neo, Amylase Test “Daiichi” (product number: 701501-005, available from Daiichi Pure Chemicals Co., Ltd.) was added to 5 mL buffer (Britton-Robinson's Buffer, pH 8.5, 50 mM (Koichi Anan et al., Fundamental Biochemical Experimental Method 6 [in Japanese], p. 277, Maruzen Co., Ltd.)) and stirred for about 10 seconds, then 1 mL enzyme solution diluted with 2 mM aqueous calcium chloride was added, and the mixture was reacted at 50° C. for 15 minutes. 1 mL of 0.5 N aqueous sodium hydroxide was added to the solution under stirring to terminate the reaction, and then the reaction solution was centrifuged (400×g, 5 minutes) to precipitate insoluble components, and the supernatant thus obtained by centrifugation was measured for absorbance at 620 nm.
One tablet from Neo, Amylase Test “Daiichi” was added to 5 mL buffer (Britton-Robinson's Buffer, pH 8.5, 50 mM (Koichi Anan et al., Fundamental Biochemical Experimental Method 6 [in Japanese], p. 277, Maruzen Co., Ltd.)) and stirred for about 10 seconds. […] The supernatant thus obtained by centrifugation was measured for absorbance at 620 nm.
The activity of amylase was calculated from the difference in absorbance between (1) and (2) in a calibration curve as a standard of an International Unit sample enclosed with Neo, Amylase Test “Daiichi”. […]

O.O.O.O.O=BO[O-].[Na+] [Sodium perborate•4H2O, sodium perborate.4H2O]
Relative activity (%): 140%

O.[Na+].[O-][Cl+3]([O-])([O-])[O-] [Sodium perchlorate•1H2O, sodium perchlorate.1H2O]
Relative activity (%): 120%

Reference: US7863235B2, “Method of activating α-amylase with oxidizing agents” (Kao Corporation, priority 2004, dated 2011)
